In PubChem BioAssay AID652130 (The Scripps Research Institute Molecular Screening Center, 2013) one finds IC50 data, which are given here for 47 molecules.

For the assay, the target named is Perilipin-5 (Homo sapiens) + 1-acylglycerol-3-phosphate O-acyltransferase ABHD5 (Homo sapiens) (UniProt Q00G26+Q8WTS1). Kind of assay: PubChem AID 652130. Conditions: ABHD5/PLIN5 interaction, luminescence, HEK293T-produced proteins.

pIC50: −log10 of the molar value. Calls of active or inactive are those of the source. The rule behind the calls is not given here.

Chain of Perilipin-5 (Homo sapiens) + 1-acylglycerol-3-phosphate O-acyltransferase ABHD5 (Homo sapiens) (Q00G26 whole entry, looked up): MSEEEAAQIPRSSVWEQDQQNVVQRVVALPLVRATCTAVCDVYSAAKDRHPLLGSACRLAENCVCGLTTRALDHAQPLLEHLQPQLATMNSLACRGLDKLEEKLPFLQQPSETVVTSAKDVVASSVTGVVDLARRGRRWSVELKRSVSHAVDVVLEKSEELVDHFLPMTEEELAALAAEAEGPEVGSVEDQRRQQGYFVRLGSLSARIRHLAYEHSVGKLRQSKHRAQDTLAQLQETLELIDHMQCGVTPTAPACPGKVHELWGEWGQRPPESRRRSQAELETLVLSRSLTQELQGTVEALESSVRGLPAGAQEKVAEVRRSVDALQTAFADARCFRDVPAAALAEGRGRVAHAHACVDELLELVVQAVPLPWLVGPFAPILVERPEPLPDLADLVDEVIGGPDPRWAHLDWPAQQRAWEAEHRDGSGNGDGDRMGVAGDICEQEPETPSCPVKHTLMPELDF
Chain of Perilipin-5 (Homo sapiens) + 1-acylglycerol-3-phosphate O-acyltransferase ABHD5 (Homo sapiens) (Q8WTS1 whole entry, looked up): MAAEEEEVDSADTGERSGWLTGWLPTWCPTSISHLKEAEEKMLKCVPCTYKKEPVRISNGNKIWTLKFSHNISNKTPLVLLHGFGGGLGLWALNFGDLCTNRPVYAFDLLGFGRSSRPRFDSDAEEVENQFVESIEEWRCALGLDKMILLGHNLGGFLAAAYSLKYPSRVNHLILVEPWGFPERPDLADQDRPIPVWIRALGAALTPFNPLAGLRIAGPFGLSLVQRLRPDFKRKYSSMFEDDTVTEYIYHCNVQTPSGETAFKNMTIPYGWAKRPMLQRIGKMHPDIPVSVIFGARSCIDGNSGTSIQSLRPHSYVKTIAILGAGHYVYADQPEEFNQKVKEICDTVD

The pIC50 is −log10 of the IC50, conventionally taken in molar units. Turning to `CN(C(=O)c1nc(S(C)(=O)=O)ncc1Cl)c1ccccc1`, the negative-log IC50 (pIC50) is 5.44.
A word on the IC50: it is the midpoint of a concentration-inhibition curve. Consider `COc1ccc(CC(=O)N2CCCN(S(=O)(=O)c3ccc(C)cc3)CC2)cc1OC`, for which the IC50 was > 39.8 µM (inactive).
With `CC(C)N1C(=O)c2ccccc2Oc2ccc(NC(=O)c3ccccc3)cc21`, the IC50 is > 39.8 µM (inactive).
On to `Cc1ccc(CS(=O)(=O)c2ncc(Cl)c(C(=O)Nc3cccc(C(F)(F)F)c3)n2)cc1`, for which the pIC50 was 5.61.
As for `Cc1ccc(CS(=O)(=O)c2ncc(Cl)c(C(=O)NCc3ccc4c(c3)OCO4)n2)cc1`, the pIC50 is 5.47.
As for `Cc1ccc(CS(=O)(=O)c2ncc(Cl)c(C(=O)Nc3nnc(C(C)C)s3)n2)cc1`, the IC50 is > 39.8 µM (inactive).
The same measure, in the same setting: as for `O=C(C1COc2ccccc2O1)N1CCN(S(=O)(=O)c2ccc3c(c2)OCCO3)CC1` (configuration not stated), the figure is > 39.8 µM (inactive); as for `Cc1ccc2cc(CC(=O)N3CCN(S(=O)(=O)c4ccc5c(c4)OCCO5)CC3)oc2c1`, “inactive”.
For the molecule `CCS(=O)(=O)c1ncc(Cl)c(C(=O)Nc2ccc(S(N)(=O)=O)cc2)n1`, the pIC50 is 5.08.
With `CCc1ccc2c(CC(=O)N3CCN(S(=O)(=O)c4ccc5c(c4)OCCO5)CC3)coc2c1`, the pIC50 was 5.46.
Consider `CC(NC(=O)CN1CCN(S(=O)(=O)c2ccc3c(c2)OCCCO3)CC1)c1cc2ccccc2o1` (configuration not stated), for which the IC50 is > 39.8 µM (inactive).
In the case of `CCCCCCNC(=O)Nc1ccc2c(c1)Sc1ccccc1C(=O)N2C`, the IC50 is > 39.8 µM (inactive).
As to `CCCS(=O)(=O)c1ccc(Cl)c(C(=O)Nc2ccc(C(=O)OCC)cc2)c1`, the negative logarithm of the IC50 (pIC50) is 5.21.
Consider `O=C(CCc1nc2ccccc2s1)N1CCN(S(=O)(=O)c2ccc3c(c2)OCCO3)CC1`, for which the IC50 result was “inactive”.
As to `CN1C(=O)c2ccccc2Oc2ccc(NC(=O)c3cccs3)cc21`, the IC50 is > 39.8 µM (inactive).
Turning to `COc1ccc(OCC(=O)Nc2ccc3c(c2)N(C(C)C)C(=O)c2ccccc2O3)cc1`, the IC50 was > 39.8 µM (inactive).
As for `O=C(CCn1cnc2ccccc21)N1CCN(S(=O)(=O)c2ccc3c(c2)OCCO3)CC1`, the IC50 was > 39.8 µM (inactive).
Same read-out and setting: as for `CCCCCCCNC(=O)Nc1ccc2c(c1)Sc1ccccc1C(=O)N2C`, the entry is “inactive”.
For the molecule `CS(=O)(=O)c1ncc(Cl)c(C(=O)Nc2ccc(C(F)(F)F)cc2)n1`, the pIC50 was 5.79.
Turning to `O=C(Cc1ccc2c(c1)CCCC2)N1CCN(S(=O)(=O)c2ccc3c(c2)OCCO3)CC1`, the IC50 entry is “inactive”.
Turning to `Cc1ccc(CS(=O)(=O)c2ncc(Cl)c(C(=O)N3CCN(C)CC3)n2)cc1`, the pIC50 is 5.23.
For `O=C(CCc1c[nH]c2ccccc12)N1CCN(S(=O)(=O)c2ccc3c(c2)OCCO3)CC1`, the IC50 is > 39.8 µM (inactive).
The same measure, in the same setting: as for `CN(C)CCCN(C(=O)c1cc2ccccc2oc1=O)c1nc2ccc(Cl)cc2s1`, the figure is > 39.8 µM (inactive); as for `CN(C)CCCN(C(=O)Cc1ccc(F)cc1)c1nc2ccc(Cl)cc2s1`, > 39.8 µM (inactive).
In the case of `CCCS(=O)(=O)c1ncc(Cl)c(C(=O)Nc2ccc(C(=O)OC)cc2)n1`, the pIC50 was 5.20.
Take `CCCC(=O)Nc1ccc2c(c1)C(=O)N(C)c1cc(C)ccc1O2`: the IC50 was > 39.8 µM (inactive).
In the case of `CN(C)CCCN(C(=O)C1CCCCC1)c1nc2cc(Cl)ccc2s1`, the IC50 was > 39.8 µM (inactive).
For the molecule `NS(=O)(=O)c1ccc(NC(=O)c2nc(S(=O)(=O)Cc3ccccc3)ncc2Cl)cc1`, the pIC50 was 5.33.
As for `CN1C(=O)c2ccccc2Oc2ccc(NC(=O)c3cc4ccccc4[nH]3)cc21`, the IC50 is > 39.8 µM (inactive).
For `O=C(Cc1cccc(F)c1)N1CCN(S(=O)(=O)c2ccc3c(c2)OCCO3)CC1`, the IC50 is > 39.8 µM (inactive).
On to `CN(C)CCCN(C(=O)CCc1ccccc1)c1nc2ccc(Cl)cc2s1`, for which the IC50 was > 39.8 µM (inactive).
As for `CN1C(=O)c2ccccc2Sc2ccc(NC(=O)NCCc3ccccc3)cc21`, the pIC50 was 5.36.
Regarding `CCCCCNC(=O)Nc1ccc2c(c1)Sc1ccccc1C(=O)N2C`, the IC50 was > 39.8 µM (inactive).
On to `CCS(=O)(=O)c1ncc(Cl)c(C(=O)Nc2ccc(C)cc2)n1`, for which the pIC50 was 5.37.
Take `CCCNC(=O)Nc1ccc2c(c1)N(CC)C(=O)c1ccccc1S2`: the IC50 entry was “inactive”.
In the case of `CCCC(=O)Nc1ccc2c(c1)C(=O)N(C)c1ccccc1O2`, the IC50 was > 39.8 µM (inactive).
Consider `COc1ccc(CCNC(=O)c2nc(S(=O)(=O)Cc3ccc(F)cc3)ncc2Cl)cc1OC`, for which the pIC50 was 5.55.
Turning to `CN(C)CCCN(C(=O)C1CCCCC1)c1nc2cc(Br)ccc2s1`, the IC50 is > 39.8 µM (inactive).
As to `O=C(Nc1ccc2ccccc2c1)c1nc(S(=O)(=O)Cc2ccccc2)ncc1Cl`, the pIC50 is 5.63.
Turning to `Cc1ccc2c(CC(=O)N3CCN(S(=O)(=O)c4ccc5c(c4)OCCCO5)CC3)coc2c1C`, the pIC50 is 5.31.
`CN1C(=O)c2ccccc2Sc2ccc(NC(=O)NCCc3cccs3)cc21`: the pIC50 was 5.25.
Still for that read-out and setting: as for `O=C(c1nc(S(=O)(=O)Cc2ccccc2)ncc1Cl)N(Cc1ccccc1)Cc1ccco1`, the figure is 5.75; as for `Cc1ccc(CS(=O)(=O)c2ncc(Cl)c(C(=O)Nc3cccc4ccccc34)n2)cc1`, 5.57.
Take `COc1ccc(CC(=O)N2CCN(S(=O)(=O)c3ccc4c(c3)OCCCO4)CC2)cc1`: the IC50 is > 39.8 µM (inactive).
For the molecule `Cc1ccc(NC(=O)c2nc(S(C)(=O)=O)ncc2Cl)cc1`, the pIC50 is 5.42.
For the molecule `CCCC(=O)N(CCCN1CCOCC1)c1nc2ccc(Cl)cc2s1`, the IC50 is > 39.8 µM (inactive).
As for `CN1C(=O)c2ccccc2Sc2ccc(NC(=O)NCCCc3ccccc3)cc21`, the pIC50 was 5.70.
